The target of the assay is T1, SERCA1A (sarcoplasmic/endoplasmic reticulum Ca2+ ATPase) (Oryctolagus cuniculus, UniProt P04191).
T1 construct: gene ATP2A1; purified rabbit skeletal muscle SR membranes expressing the SERCA1A isoform
In words: coupled-enzyme ATPase assay on purified SERCA1A from rabbit skeletal muscle. Format: biochemical.

Results on one compound are retold here after paper PMC6934498, “Neferine induces autophagy-dependent cell death in apoptosis-resistant cancers via ryanodine receptor and Ca^2+-dependent mechanism” (Scientific Reports, 2019).

T1 sequence (P04191 1-993): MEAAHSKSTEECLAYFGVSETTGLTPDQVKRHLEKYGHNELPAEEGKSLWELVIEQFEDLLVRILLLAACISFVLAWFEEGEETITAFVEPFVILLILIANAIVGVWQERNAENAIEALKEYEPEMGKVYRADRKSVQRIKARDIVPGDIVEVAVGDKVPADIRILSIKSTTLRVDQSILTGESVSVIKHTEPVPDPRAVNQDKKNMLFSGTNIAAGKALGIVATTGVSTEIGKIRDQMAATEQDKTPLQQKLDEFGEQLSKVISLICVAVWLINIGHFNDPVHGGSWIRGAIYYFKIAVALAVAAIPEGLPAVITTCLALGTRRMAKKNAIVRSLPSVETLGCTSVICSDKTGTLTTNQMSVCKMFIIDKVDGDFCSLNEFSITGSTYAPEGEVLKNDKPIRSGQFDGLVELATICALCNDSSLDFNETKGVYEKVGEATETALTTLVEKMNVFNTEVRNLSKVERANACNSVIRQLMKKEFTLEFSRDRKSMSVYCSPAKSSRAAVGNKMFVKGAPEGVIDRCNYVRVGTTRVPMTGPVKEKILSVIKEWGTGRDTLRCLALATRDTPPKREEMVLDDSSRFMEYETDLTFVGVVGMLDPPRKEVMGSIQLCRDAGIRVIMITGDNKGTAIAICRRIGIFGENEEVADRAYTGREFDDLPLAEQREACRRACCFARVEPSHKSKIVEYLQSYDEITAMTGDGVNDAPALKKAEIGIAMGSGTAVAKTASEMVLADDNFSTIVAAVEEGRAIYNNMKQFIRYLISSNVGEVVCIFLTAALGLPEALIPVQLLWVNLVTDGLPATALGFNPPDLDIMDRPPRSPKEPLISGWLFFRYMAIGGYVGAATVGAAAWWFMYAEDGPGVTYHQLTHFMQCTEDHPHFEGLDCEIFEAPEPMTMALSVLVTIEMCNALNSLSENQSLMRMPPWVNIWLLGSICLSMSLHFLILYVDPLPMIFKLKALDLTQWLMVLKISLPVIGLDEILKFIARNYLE

One may read the IC50 as the concentration at which inhibition is half-maximal. Read a high IC50 as weaker potency in that assay. As for `COc1ccc(C[C@@H]2c3cc(Oc4cc(C[C@@H]5c6cc(OC)c(OC)cc6CCN5C)ccc4O)c(OC)cc3CCN2C)cc1` [neferine], inhibition was half-maximal at 320 ± 70 µM (IC50).
